# From PubChem BioAssay AID328 (DTP/NCI, 2004)
# Values joined by “and” are separate entries in the source; they are usually repeats but may differ in a detail not shown here. Identical values can stand only once. Toxic doses and inconclusive results are not listed.
# System: BDF1 mice, P388 leukemia ip, median survival T/C
# Assay: NCI In Vivo Anticancer Drug Screen. Data for tumor model P388 Leukemia (intraperitoneal) in B6D2F1 (BDF1) mice
# Settings: endpoint: median survival time, higher = longer survival
# Outline: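 Transplantable tumour in mice; compound vs vehicle dosing; survival scored; ratio of treated to control reported.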
# [1] = dose: 50.0 mg/kg/injection, schedule: Q01DX009 (ip), vehicle: saline with Tween-80
# [2] = dose: 75.0 mg/kg/injection, schedule: Q01DX009 (ip), vehicle: saline with Tween-80
# [3] = dose: 100.0 mg/kg/injection, schedule: Q04DX003 (ip), vehicle: saline
# [4] = dose: 100.0 mg/kg/injection, schedule: Q01DX001 (ip), vehicle: Klucel (hydroxypropylcellulose) (HPC)
# [5] = dose: 100.0 mg/kg/injection, schedule: Q04DX003 (ip), vehicle: Klucel (hydroxypropylcellulose) (HPC)
# [6] = dose: 100.0 mg/kg/injection, schedule: Q04DX003 (ip), vehicle: saline with Tween-80
# [7] = dose: 200.0 mg/kg/injection, schedule: Q01DX001 (ip), vehicle: Klucel (hydroxypropylcellulose) (HPC)
# [8] = dose: 200.0 mg/kg/injection, schedule: Q04DX003 (ip), vehicle: Klucel (hydroxypropylcellulose) (HPC)
# [9] = dose: 200.0 mg/kg/injection, schedule: Q04DX003 (ip), vehicle: saline with Tween-80
# [10] = dose: 400.0 mg/kg/injection, schedule: Q01DX001 (ip), vehicle: Klucel (hydroxypropylcellulose) (HPC)
# [11] = dose: 400.0 mg/kg/injection, schedule: Q04DX003 (ip), vehicle: saline with Tween-80
# [12] = dose: 100.0 mg/kg/injection, schedule: Q01DX009 (ip), vehicle: saline with Tween-80
# [13] = dose: 200.0 mg/kg/injection, schedule: Q01DX009 (ip), vehicle: saline with Tween-80
# [14] = dose: 200.0 mg/kg/injection, schedule: Q04DX003 (ip), vehicle: saline
# [15] = dose: 50.0 mg/kg/injection, schedule: Q04DX003 (ip), vehicle: saline
# [16] = dose: 12.5 mg/kg/injection, schedule: Q01DX009 (ip), vehicle: saline with Tween-80
# [17] = dose: 25.0 mg/kg/injection, schedule: Q01DX009 (ip), vehicle: saline with Tween-80
smiles,measurement,setting,value
COc1ccc(C[C@@H]2NC[C@@H](O)[C@@H]2OC(C)=O)cc1,T/C,"dose: 6.25 mg/kg/injection, schedule: Q04DX002 (ip), vehicle: saline with Tween-80",100 % of control
same,T/C,"dose: 12.5 mg/kg/injection, schedule: Q04DX002 (ip), vehicle: saline with Tween-80",106 % of control
same,T/C,"dose: 22.0 mg/kg/injection, schedule: Q01DX009 (ip), vehicle: saline",106 % of control
same,T/C,"dose: 25.0 mg/kg/injection, schedule: Q04DX002 (ip), vehicle: saline with Tween-80",100 % of control
same,T/C,"dose: 33.0 mg/kg/injection, schedule: Q01DX009 (ip), vehicle: saline with Tween-80",112 % of control
same,T/C,"dose: 33.0 mg/kg/injection, schedule: Q01DX009 (ip), vehicle: saline",106 % of control
same,T/C,"dose: 44.0 mg/kg/injection, schedule: Q04DX003 (ip), vehicle: saline",102 % of control
same,T/C,[1],113 % of control
same,T/C,"dose: 50.0 mg/kg/injection, schedule: Q01DX009 (ip), vehicle: saline",106 % of control
same,T/C,"dose: 50.0 mg/kg/injection, schedule: Q04DX002 (ip), vehicle: saline with Tween-80",97 % of control
same,T/C,"dose: 66.0 mg/kg/injection, schedule: Q01DX001 (ip), vehicle: saline",111 % of control
same,T/C,"dose: 66.0 mg/kg/injection, schedule: Q04DX003 (ip), vehicle: saline",105 % of control
same,T/C,[2],113 % of control
same,T/C,"dose: 100.0 mg/kg/injection, schedule: Q01DX001 (ip), vehicle: saline",104 % of control
same,T/C,"dose: 100.0 mg/kg/injection, schedule: Q01DX009 (ip), vehicle: saline",109 % of control
same,T/C,"dose: 100.0 mg/kg/injection, schedule: Q04DX002 (ip), vehicle: saline with Tween-80",104 % of control
same,T/C,[3],111 % of control
same,T/C,"dose: 113.0 mg/kg/injection, schedule: Q01DX009 (ip), vehicle: saline with Tween-80",120 % of control
same,T/C,"dose: 150.0 mg/kg/injection, schedule: Q01DX001 (ip), vehicle: saline",107 % of control
same,T/C,"dose: 150.0 mg/kg/injection, schedule: Q04DX003 (ip), vehicle: saline",110 % of control
same,T/C,"dose: 169.0 mg/kg/injection, schedule: Q01DX009 (ip), vehicle: saline with Tween-80",116 % of control
same,T/C,"dose: 225.0 mg/kg/injection, schedule: Q01DX001 (ip), vehicle: saline",103 % of control
same,T/C,"dose: 225.0 mg/kg/injection, schedule: Q04DX003 (ip), vehicle: saline",105 % of control
same,T/C,"dose: 338.0 mg/kg/injection, schedule: Q01DX001 (ip), vehicle: saline",102 % of control
O=C1c2ccccc2CCC12OC2c1ccc(Cl)cc1 (centres undefined),T/C,[4],95 % of control
same,T/C,[5],100 % of control
same,T/C,[6],91 % of control
same,T/C,[7],100 % of control
same,T/C,[8],104 % of control
same,T/C,[9],104 % of control
same,T/C,[10],90 % of control
same,T/C,"dose: 400.0 mg/kg/injection, schedule: Q04DX003 (ip), vehicle: Klucel (hydroxypropylcellulose) (HPC)",104 % of control
same,T/C,[11],95 % of control
N#Cc1ccccc1CC(O)(c1ccccc1)c1ccccn1 (centres undefined),T/C,[1],100 % of control
same,T/C,[12],103 % of control
same,T/C,[13],115 % of control
C#CCn1cnc2c(Cl)ncnc21,T/C,"dose: 50.0 mg/kg/injection, schedule: Q01DX009 (ip), vehicle: other",118 % of control
same,T/C,"dose: 100.0 mg/kg/injection, schedule: Q01DX009 (ip), vehicle: other",100 % of control
same,T/C,[3],108 % of control
same,T/C,[14],104 % of control
same,T/C,"dose: 400.0 mg/kg/injection, schedule: Q04DX003 (ip), vehicle: saline",95 % of control
CNC(=O)c1n[nH]c(C)c1[N+](=O)[O-],T/C,"dose: 25.0 mg/kg/injection, schedule: Q04DX003 (ip), vehicle: water",101 % of control
same,T/C,"dose: 50.0 mg/kg/injection, schedule: Q04DX003 (ip), vehicle: water",106 % of control
same,T/C,"dose: 100.0 mg/kg/injection, schedule: Q04DX003 (ip), vehicle: water",114 % of control
same,T/C,"dose: 200.0 mg/kg/injection, schedule: Q04DX003 (ip), vehicle: water",97 % of control
same,T/C,"dose: 400.0 mg/kg/injection, schedule: Q04DX003 (ip), vehicle: water",87 % of control
O=C(O)c1ccc(C(=O)O)c([N+](=O)[O-])c1,T/C,[15],100 % of control
same,T/C,[3],100 % of control
same,T/C,[14],100 % of control
CN(C)C(=S)/N=c1\ss/c(=N\C(=S)N(C)C)n1-c1ccccc1,T/C,[1],100 % of control
same,T/C,[12],95 % of control
same,T/C,[13],95 % of control
O=P(NC12CC3CC(CC(C3)C1)C2)(N1CC1)N1CC1,T/C,"dose: 2.2 mg/kg/injection, schedule: Q01DX009 (ip), vehicle: Klucel (hydroxypropylcellulose) (HPC)",120 % of control
same,T/C,"dose: 4.4 mg/kg/injection, schedule: Q01DX009 (ip), vehicle: Klucel (hydroxypropylcellulose) (HPC)",183 % of control
same,T/C,"dose: 6.6 mg/kg/injection, schedule: Q01DX009 (ip), vehicle: Klucel (hydroxypropylcellulose) (HPC)",238 % of control and 154 % of control and 211 % of control
same,T/C,"dose: 10.0 mg/kg/injection, schedule: Q01DX009 (ip), vehicle: Klucel (hydroxypropylcellulose) (HPC)",244 % of control and 88 % of control and 122 % of control
same,T/C,"dose: 15.0 mg/kg/injection, schedule: Q01DX009 (ip), vehicle: Klucel (hydroxypropylcellulose) (HPC)",105 % of control
O=COc1ccc([N+](=O)[O-])cc1,T/C,"dose: 25.0 mg/kg/injection, schedule: Q04DX003 (ip), vehicle: saline",95 % of control
same,T/C,[15],100 % of control
same,T/C,[3],100 % of control
CN1CCCN(C)CC1,T/C,[2],103 % of control
same,T/C,[6],100 % of control
same,T/C,"dose: 150.0 mg/kg/injection, schedule: Q01DX009 (ip), vehicle: saline with Tween-80",119 % of control
same,T/C,[9],95 % of control
same,T/C,"dose: 300.0 mg/kg/injection, schedule: Q01DX009 (ip), vehicle: saline with Tween-80",107 % of control
same,T/C,[11],112 % of control
c1cc[c]([Sn]([c]2ccccc2)([c]2ccccc2)[c]2ccccc2)cc1,T/C,[12],94 % of control
same,T/C,[13],94 % of control
same,T/C,"dose: 400.0 mg/kg/injection, schedule: Q01DX009 (ip), vehicle: saline with Tween-80",97 % of control
CC(C)=CCCC(C)C/C=N\O (centres undefined),T/C,[16],107 % of control
same,T/C,[17],107 % of control
same,T/C,[1],96 % of control
same,T/C,[6],109 % of control
same,T/C,[9],113 % of control
same,T/C,[11],109 % of control
Cn1cnc([N+](=O)[O-])c1S(=O)(=O)NCN1CCOCC1,T/C,"dose: 12.5 mg/kg/injection, schedule: Q01DX009 (ip), vehicle: Klucel (hydroxypropylcellulose) (HPC)",118 % of control
same,T/C,"dose: 50.0 mg/kg/injection, schedule: Q01DX009 (ip), vehicle: Klucel (hydroxypropylcellulose) (HPC)",121 % of control
same,T/C,"dose: 100.0 mg/kg/injection, schedule: Q01DX009 (ip), vehicle: Klucel (hydroxypropylcellulose) (HPC)",116 % of control
COC1OC2COC(c3ccccc3)OC2C2OC12 (centres undefined),T/C,"dose: 6.25 mg/kg/injection, schedule: Q01DX009 (ip), vehicle: saline with Tween-80",109 % of control
same,T/C,[16],99 % of control
same,T/C,[17],96 % of control
same,T/C,[1],100 % of control
same,T/C,[6],109 % of control
same,T/C,[9],100 % of control
same,T/C,[11],100 % of control
c1ccc(Nc2ccc(Nc3ccccc3)cc2)cc1,T/C,"dose: 50.0 mg/kg/injection, schedule: Q04DX003 (ip), vehicle: Klucel (hydroxypropylcellulose) (HPC)",118 % of control
same,T/C,[4],90 % of control
same,T/C,[5],104 % of control
same,T/C,[7],100 % of control
same,T/C,[8],104 % of control
same,T/C,[10],90 % of control
O=C(Cl)C1C2CC1C(Cl)C2Cl (centres undefined),T/C,[1],103 % of control
same,T/C,[12],108 % of control
same,T/C,[13],107 % of control
Cc1c2c(O)c(O)c(O)cc2c[n+]2ccccc12,T/C,"dose: 6.25 mg/kg/injection, schedule: Q01DX009 (ip), vehicle: saline",100 % of control
same,T/C,"dose: 12.5 mg/kg/injection, schedule: Q01DX009 (ip), vehicle: saline",106 % of control
same,T/C,"dose: 25.0 mg/kg/injection, schedule: Q01DX009 (ip), vehicle: saline",123 % of control
C[CH2][Ge]([CH2]C)[CH2]/C=C\[CH2][Ge]([CH2]C)[CH2]C,T/C,[16],100 % of control
same,T/C,[17],89 % of control
same,T/C,[1],100 % of control
Cc1ccsc1/C=N/NC(N)=S,T/C,"dose: 50.0 mg/kg/injection, schedule: Q04DX003 (ip), vehicle: saline with Tween-80",117 % of control
same,T/C,[6],117 % of control
same,T/C,[9],115 % of control
same,T/C,[11],92 % of control
